{"source": "paper PMC5054302", "about": "(Molecular and biochemical parasitology, 2011)", "key": {"P. berghei liver stages": {"tested_on": "P. berghei liver stages", "assay": "microbe, parasite or virus in culture", "format": "cell-based, Plasmodium berghei", "settings": "for Selectivity index: IC50 against hepatocytes divided by IC50 for P. berghei liver stage development"}, "HepG2 cells": {"tested_on": "HepG2 cells", "assay": "cells", "format": "cell-based, human", "settings": "read-out: Hepatocyte counterscreen"}, "[1]": {"tested_on": "cytochrome bc1 complex, L275F yeast cytochrome b mutant", "format": "biochemical, Saccharomyces cerevisiae", "settings": "IC50 against L275F mutant enzyme divided by IC50 of wild-type enzyme"}, "[2]": {"tested_on": "cytochrome bc1 complex, M139L yeast cytochrome b mutant", "format": "biochemical, Saccharomyces cerevisiae", "settings": "IC50 against M139L mutant enzyme divided by IC50 of wild-type enzyme"}, "[3]": {"tested_on": "P. falciparum TM90C2B (C2B isolates, Y268S cytochrome b)", "assay": "Radio-labeled hypoxanthine growth assay, atovaquone-resistant C2B isolates", "format": "cell-based, Plasmodium falciparum"}, "[4]": {"target": "cytochrome bc1 complex, Y279S yeast cytochrome b mutant (Saccharomyces cerevisiae, UniProt P00163+P08067, Y279S)", "format": "biochemical"}}, "note": "pIC50: −log10 of the molar value. Read-outs that look alike come from different tables or passages of the source.", "data": [{"smiles": "CC(CCCCCC(F)(F)F)CC1=C(O)C(=O)c2ccccc2C1=O", "note": "(stereo not shown) [NQ1, 2-OH-3-(2-methyl-trifluorooctyl)-naphthoquinone]", "values": [{"measurement": "Selectivity index", "setting": "P. berghei liver stages", "value": 399}, {"measurement": "pIC50", "setting": "HepG2 cells; MTT, HepG2 cells alone, 48 h", "value": 5.17}, {"measurement": "Relative efficacy", "setting": "[1]", "value": "< 1.0"}, {"measurement": "Relative efficacy", "setting": "[2]", "value": "< 1.0"}]}, {"smiles": "Cc1cccc2c1C(=O)C(O)=C(CC(C)CCCCCC(F)(F)F)C2=O", "note": "(stereo not shown) [NQ3, 2-OH-3-(2-methyl-trifluorooctyl)-8-methyl-naphthoquinone]", "values": [{"measurement": "pIC50", "setting": "HepG2 cells; MTT, HepG2 cells alone, 48 h", "value": "< 4.27"}]}, {"smiles": "CCCCCCC(C)CC1=C(O)C(=O)c2ccccc2C1=O", "note": "(stereo not shown) [S-10576, reference compound]", "values": [{"measurement": "pIC50", "setting": "HepG2 cells; MTT, HepG2 cells alone, 48 h", "value": "< 4.18"}]}, {"smiles": "O=C1C(O)=C([C@H]2CC[C@H](c3ccc(Cl)cc3)CC2)C(=O)c2ccccc21", "note": "[Atovaquone, reference compound]", "values": [{"measurement": "pIC50", "setting": "[3]", "value": "5.15 to 5.18"}, {"measurement": "pIC50", "setting": "P. berghei liver stages; Plasmodium berghei, HepG2, 48 h, read-out: IC50 against P. berghei", "value": 7.71}, {"measurement": "pIC50", "setting": "HepG2 cells; Homo sapiens, HepG2, 48 h", "value": 4.42}]}, {"smiles": "CCCCCCC(C)CC1=C(O)C(=O)c2c(C)cccc2C1=O", "note": "(stereo not shown) [NQ2, 2-OH-3-(2-methyl-octyl)-8-methyl-naphthoquinone]", "values": [{"measurement": "Selectivity index", "setting": "P. berghei liver stages", "value": 10.1}, {"measurement": "pIC50", "setting": "HepG2 cells; MTT, HepG2 cells alone, 48 h", "value": 5.60}, {"measurement": "Relative efficacy", "setting": "[4]; IC50 against Y279S mutant enzyme divided by IC50 of wild-type enzyme", "value": 0.37}, {"measurement": "Extent of inhibition of Y279S enzyme activity", "setting": "[4]; at 500 nM, biphasic titration", "value": "did not reach complete inhibition"}]}]}
